Measured values from publication PMC8384862, “Identification of new target proteins of a Urotensin-II receptor antagonist using transcriptome-based drug repositioning approach” (Scientific Reports, 2021).
Structures can show the parent of a compound that is named as a salt.

Biological target: T1, sodium-dependent serotonin transporter (Homo sapiens, UniProt P31645)
T1 construct: gene SLC6A4; human recombinant, CHO cell membrane
Assay: radioligand displacement of [3H]imipramine on recombinant CHO cell membranes, single dose […]
Format: binding

T1 sequence (P31645 whole entry): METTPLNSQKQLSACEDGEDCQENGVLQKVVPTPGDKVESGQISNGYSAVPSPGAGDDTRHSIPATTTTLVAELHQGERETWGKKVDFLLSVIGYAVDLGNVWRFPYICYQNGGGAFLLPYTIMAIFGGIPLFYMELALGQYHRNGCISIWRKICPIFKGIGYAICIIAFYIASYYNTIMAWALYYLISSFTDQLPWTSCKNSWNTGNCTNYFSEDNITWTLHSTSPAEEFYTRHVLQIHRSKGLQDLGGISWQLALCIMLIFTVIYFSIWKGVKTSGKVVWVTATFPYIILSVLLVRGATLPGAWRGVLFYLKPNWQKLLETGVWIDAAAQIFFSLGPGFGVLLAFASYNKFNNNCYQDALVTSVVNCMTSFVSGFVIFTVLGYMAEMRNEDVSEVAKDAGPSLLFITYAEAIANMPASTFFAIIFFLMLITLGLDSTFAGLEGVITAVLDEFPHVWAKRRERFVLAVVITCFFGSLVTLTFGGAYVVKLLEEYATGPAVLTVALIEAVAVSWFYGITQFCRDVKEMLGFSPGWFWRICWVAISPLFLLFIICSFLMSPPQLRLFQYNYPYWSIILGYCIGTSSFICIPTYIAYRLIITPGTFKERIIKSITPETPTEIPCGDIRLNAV

## CN(C)c1cccc(NC(=O)N2CCN(Cc3ccc(OC4CCNCC4)c(Br)c3)CC2)c1 [KR-37524, 4-(3-bromo-4-(piperidin-4-yloxy)benzyl)-N-(3-(dimethylamino)phenyl)piperazine-1-carboxamide dihydrochloride]
  inhibition at 10 µM: > 50%
